Experimental findings from US20070185161A1, “Bicyclic substituted indole-derivative steroid hormone nuclear receptor modulators” (priority 2004, published 2007) are described below.

In assay [1] the target is T1, glucocorticoid receptor (A549 human lung epithelial cell extract) (Homo sapiens, UniProt P04150).
T1 construct: host or cells: A549 human lung epithelial cells
T1 sequence (P04150 1-777): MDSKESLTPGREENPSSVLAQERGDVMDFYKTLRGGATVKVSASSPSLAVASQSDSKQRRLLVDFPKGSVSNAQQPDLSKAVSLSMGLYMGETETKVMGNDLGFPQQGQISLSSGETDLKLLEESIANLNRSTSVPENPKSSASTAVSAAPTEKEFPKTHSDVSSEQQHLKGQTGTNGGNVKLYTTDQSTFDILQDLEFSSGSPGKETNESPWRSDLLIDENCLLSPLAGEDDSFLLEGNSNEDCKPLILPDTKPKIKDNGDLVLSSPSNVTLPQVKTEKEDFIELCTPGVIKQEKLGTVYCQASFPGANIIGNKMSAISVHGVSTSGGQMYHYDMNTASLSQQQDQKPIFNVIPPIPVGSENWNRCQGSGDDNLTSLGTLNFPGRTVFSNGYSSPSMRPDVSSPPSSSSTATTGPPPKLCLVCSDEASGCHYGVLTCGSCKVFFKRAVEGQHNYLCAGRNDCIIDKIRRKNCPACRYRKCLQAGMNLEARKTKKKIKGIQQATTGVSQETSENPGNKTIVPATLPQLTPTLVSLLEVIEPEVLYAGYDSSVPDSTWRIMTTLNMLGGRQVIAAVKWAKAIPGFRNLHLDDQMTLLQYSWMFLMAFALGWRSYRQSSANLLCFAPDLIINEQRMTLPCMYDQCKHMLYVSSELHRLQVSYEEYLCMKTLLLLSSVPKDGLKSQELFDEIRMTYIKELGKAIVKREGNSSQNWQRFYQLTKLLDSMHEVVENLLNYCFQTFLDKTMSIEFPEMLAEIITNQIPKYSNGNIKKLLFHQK
Nature of the assay: Glucocorticoid Receptor Binding Assay (Method 1). To be noted: [3H]-dexamethasone, racemic mixture unless otherwise indicated, read-out: GR Ki (nM) Method 1. How it is done: A549 human lung epithelial cells (ATCC) are grown at a scale where gram quantity cell pellets are obtained. Harvested cell pellets are washed twice in cold phosphate buffered saline, centrifuged, and resuspended in cold assay binding buffer. The assay binding buffer consists of 10% glycerol, 50 mM Tris-HCl (pH7.2), 75 mM sodium chloride, 1.5 mM magnesium chloride, 1.5 mM EDTA, and 10 mM sodium molybdate. Cell suspensions were lysed via sonication, centrifuged, and the “extract” supernatant is snap frozen and stored at −80 C until needed.
GR binding assays are performed in a final volume of 140 ul containing 50-200 ug of A549 cell extract and 1.86 nM [^3H]-dexamethasone (Amersham) plus varying concentrations of test compound or vehicle. Briefly, assays are prepared at RT in 96-well Fisher 3356 plates, each well containing 100 ul of A549 cell extract, 20 ul of [^3H]-dexamethasone, and 20 ul of test compound/vehicle. Incubations are carried out at 4 degrees Celsius for 16 hours. After incubation, 70 ul of 3× dextran-coated charcoal solution is added to each reaction, mixed, and incubated for 8 minutes at RT. 3×-dextran-coated charcoal solution consists of 250 ml assay binding buffer, 3.75 g Norit A charcoal (Sigma), and 1.25 g dextran T-70 (Amersham). Charcoal/unbound radioligand complexes are removed by centrifugation of the plate and 140 ul of supernatant from each well is transferred to another 96 well Optiplate (Packard Instruments). 200 ul of Microscint-20 scinillant (Packard Instruments) is added to each well and amount of receptor bound radioligand is determined using Packard Instruments TopCount instrument.
IC50 values, defined as the concentration of test compound required to decrease [^3H]-dexamethasone binding by 50%, are then determined. Ki values for each respective test compound can then be calculated by application of the Cheng-Prusoff equation as described in Cheng et al., Relationship Between The Inhibition Constant (Ki) and The Concentration of Inhibitor Which Causes 50% Inhibition (IC50) of an Enzymatic Reaction, Biochem. Pharmacol., 22: 3099-31088; (1973).

In assay [2] the target is T2, human GR (glucocorticoid receptor) (Homo sapiens, UniProt P04150).
T2 construct: expressed in transfected cells; host or cells: 293 cells
T2 sequence (P04150 1-777): T1 sequence (P04150 1-777)
Nature of the assay: Alternative Binding Assay Protocol (Method 2), GR. To be noted: 3H-dexamethasone, 293-GR lysate, racemic mixture unless otherwise indicated. How it is done: Cell lysates from 293 cells overexpressing human GR (glucocorticoid receptor), AR (androgen receptor), MR (mineralocorticoid receptor) or PR (progesterone receptor) are used for competition binding assays to determine Ki values for test compounds. Briefly, competition binding assays are run in a buffer containing 20 mM Hepes, pH 7.6, 0.2 mM EDTA, 75 mM NaCl, 1.5 mM MgCl2, 20% glycerol, 20 mM sodium molybdate, 0.2 mM DTT, 20 ug/ml aprotinin and 20 ug/ml leupeptin, using either 0.3 nM ^3H-dexamethasone for GR binding, 0.36 nM ^3H-methyltrienolone for AR binding, 0.25 nM ^3H-aldosterone for MR binding, or 0.29 nM ^3H-methyltrienolone for PR binding, and either 20 ug 293-GR lysate, 22 ug 293-AR lysate, 20 ug 293-MR lysate or 40 ug 293-PR lysate per well. Competing compounds are added at various concentraions in half-log increments. Non-specific binding is determined in the presence of 500 nM dexamethasone for GR binding, 500 nM aldosterone for MR binding, or 500 nM methyltrienolone for AR and PR binding,. The binding reaction (140 μl) is incubated for overnight at […], then 70 μl of cold charcoal-dextran buffer (containing per 50 ml of assay buffer, 0.75 g of charcoal and 0.25 g of dextran) is added to each reaction. Plates are mixed 8 minutes on an orbital shaker at 4° C. Plates are then centrifuged at 3,000 rpm at 4° C. for 10 minutes. An aliquot of 120 μl of the mix is transferred to another 96-well plate and 175 μl of Wallac Optiphase “Hisafe 3” scintillation fluid is added to each well. Plates are sealed and shaken vigorously on an orbital shaker. After an incubation of 2 hrs, plates are read in a Wallac Microbeta counter. The data is used to calculate an IC50 and % Inhibition at 10 μM. The Kd for ^3H-dexamethasone for GR binding, ^3H-methyltrienolone for AR binding, ^3H-aldosterone for MR binding, or ^3H-methyltrienolone for PR binding, is determined by saturation binding. The IC50 values for compounds are converted to Ki using Cheng-Prusoff equation and the Kd determined by saturation binding assay.

Usually Ki stands for a measure of affinity in units of concentration, obtained from inhibition or displacement. Turning to `CCC1(c2c[nH]c3c(NS(C)(=O)=O)cccc23)CCc2cc(F)ccc21` (racemic) [Example 1, N-[3-(1-ethyl-5-fluoro-indan-1-yl)-1H-indol-7-yl]-methanesulfonamide], the Ki in assay [1] is at most 500 nM.
The same measure, in the same setting: the result for `CC1(c2c[nH]c3c(NS(C)(=O)=O)cccc23)CCc2cc(F)ccc21` (racemic) [Example 21, N-[3-(5-Fluoro-1-methyl-indan-1-yl)-1H-indol-7-yl]-methanesulfonamide] reads at most 500 nM; that for `CCC1(c2c[nH]c3c(NS(C)(=O)=O)cccc23)CCc2cc(F)cc(F)c21` (racemic) [Example 23, N-[3-(1-Ethyl-5,7-difluoro-indan-1-yl)-1H-indol-7-yl]-methanesulfonamide], at most 500 nM.
With `CC1(c2c[nH]c3c(NS(C)(=O)=O)cccc23)CCCc2cc(F)ccc21` (racemic) [Example 28, N-[3-(6-Fluoro-1-methyl-1,2,3,4-tetrahydro-naphthalen-1-yl)-1H-indol-7-yl]-methanesulfonamide], the Ki in assay [1] was at most 500 nM.
For the molecule `CCC1(c2c[nH]c3c(NS(C)(=O)=O)cccc23)CCCc2cc(F)ccc21` (racemic) [Example 29, N-[3-(1-Ethyl-6-fluoro-1,2,3,4-tetrahydro-naphthalen-1-yl)-1H-indol-7-yl]-methanesulfonamide], the inhibition constant Ki in assay [1] was at most 500 nM.
For the molecule `CCC1(c2c[nH]c3c(NS(C)(=O)=O)cccc23)CCCc2cc(F)cc(F)c21` (racemic) [Example 31, N-[3-(1-Ethyl-6,8-difluoro-1,2,3,4-tetrahydro-naphthalen-1-yl)-1H-indol-7-yl]-methanesulfonamide], the Ki in assay [1] is at most 500 nM.
With `CCC1(c2c[nH]c3c(NS(C)(=O)=O)cccc23)CCc2cc(F)ccc21` (single isomer, unassigned) [Example 1A, N-[3-(1-ethyl-5-fluoro-indan-1-yl)-1H-indol-7-yl]-methanesulfonamide], the Ki in assay [1] is at most 500 nM.
The same measure, in the same setting: the result for `CC1(c2c[nH]c3c(NS(C)(=O)=O)cccc23)CCc2cc(F)ccc21` (single isomer, unassigned) [Example 21A, N-[3-(5-Fluoro-1-methyl-indan-1-yl)-1H-indol-7-yl]-methanesulfonamide] reads at most 500 nM; that for `CC1(c2c[nH]c3c(NS(C)(=O)=O)cccc23)CCc2cc(F)ccc21` (single isomer, unassigned) [Example 21B, N-[3-(5-Fluoro-1-methyl-indan-1-yl)-1H-indol-7-yl]-methanesulfonamide], at most 500 nM; that for `CCC1(c2c[nH]c3c(NS(C)(=O)=O)cccc23)CCc2cc(F)cc(F)c21` (single isomer, unassigned) [Example 23A, N-[3-(1-Ethyl-5,7-difluoro-indan-1-yl)-1H-indol-7-yl]-methanesulfonamide], at most 500 nM.
`CCC1(c2c[nH]c3c(NS(C)(=O)=O)cccc23)CCc2cc(F)cc(F)c21` (single isomer, unassigned) [Example 23B, N-[3-(1-Ethyl-5,7-difluoro-indan-1-yl)-1H-indol-7-yl]-methanesulfonamide]: the Ki in assay [1] was at most 10000 nM.
On to `CC1(c2c[nH]c3c(NS(C)(=O)=O)cccc23)CCCc2cc(F)ccc21` (single isomer, unassigned) [Example 28A, N-[3-(6-Fluoro-1-methyl-1,2,3,4-tetrahydro-naphthalen-1-yl)-1H-indol-7-yl]-methanesulfonamide], for which the Ki in assay [1] is at most 500 nM.
For `CC1(c2c[nH]c3c(NS(C)(=O)=O)cccc23)CCCc2cc(F)ccc21` (single isomer, unassigned) [Example 28B, N-[3-(6-Fluoro-1-methyl-1,2,3,4-tetrahydro-naphthalen-1-yl)-1H-indol-7-yl]-methanesulfonamide], the Ki in assay [1] is at most 500 nM.
For the molecule `CCC1(c2c[nH]c3c(NS(C)(=O)=O)cccc23)CCCc2cc(F)ccc21` (single isomer, unassigned) [Example 29A, N-[3-(1-Ethyl-6-fluoro-1,2,3,4-tetrahydro-naphthalen-1-yl)-1H-indol-7-yl]-methanesulfonamide], the Ki in assay [1] was at most 500 nM.
For the molecule `CCC1(c2c[nH]c3c(NS(C)(=O)=O)cccc23)CCCc2cc(F)ccc21` (single isomer, unassigned) [Example 29B, N-[3-(1-Ethyl-6-fluoro-1,2,3,4-tetrahydro-naphthalen-1-yl)-1H-indol-7-yl]-methanesulfonamide], in assay [1], the Ki was at most 500 nM.
Still for that read-out and setting: the result for `CC1(c2c[nH]c3c(NS(C)(=O)=O)cccc23)CCc2ccccc21` (stereo not drawn) [Example 20, N-[3-(1-Methyl-indan-1-yl)-1H-indol-7-yl]-methanesulfonamide] reads at most 500 nM.
On to `CC1(c2c[nH]c3c(NS(C)(=O)=O)cccc23)CCc2cc(-n3cccn3)ccc21` (stereo not drawn) [Example 24, N-[3-(1-Methyl-5-pyrazol-1-yl-indan-1-yl)-1H-indol-7-yl]-methanesulfonamide], for which the Ki in assay [1] is at most 500 nM.
With `CS(=O)(=O)Nc1cccc2c(C3CCCc4ccccc43)c[nH]c12` (stereo not drawn) [Example 25, N-[3-(1,2,3,4-Tetrahydro-naphthalen-1-yl)-1H-indol-7-yl]-methanesulfonamide], the Ki in assay [1] is at most 500 nM.
On to `CC1(c2c[nH]c3c(NS(C)(=O)=O)cccc23)CCCc2ccccc21` (stereo not drawn) [Example 26, N-[3-(1-Methyl-1,2,3,4-tetrahydro-naphthalen-1-yl)-1H-indol-7-yl]-methanesulfonamide], for which, in assay [1], the Ki is at most 500 nM.
On the same count and under the same terms, the result for `CCC1(c2c[nH]c3c(NS(C)(=O)=O)cccc23)CCCc2ccccc21` (stereo not drawn) [Example 27, N-[3-(1-Ethyl-1,2,3,4-tetrahydro-naphthalen-1-yl)-1H-indol-7-yl]-methanesulfonamide] reads at most 500 nM.
Consider `CS(=O)(=O)Nc1cccc2c(C3(CCCN4CCOCC4)CCc4cc(F)ccc43)c[nH]c12` (stereo not drawn) [Example 44, N-{3-[5-Fluoro-1-(3-morpholin-4-yl-propyl)-indan-1-yl]-1H-indol-7-yl}-methanesulfonamide], for which the Ki in assay [2] is at most 500 nM.
